From patent publication US6395896B2, “Pyridazine derivatives, manufacturing method and related composition” (Shiseido Co., Ltd., priority 1999, dated 2002)

Columns and labels:
[1] = Perfume stabilization effect (photostabilizer, sunlight exposure, judgement by perfumier); parameters: key to Sunlight exposure (80 MJ) Smell evaluation / Sunlight exposure (80 MJ) evaluation: A: No change; B: No almost change; C: Yes change
Experimental: Next, the photostabilization effect for each perfume was studied by the following evaluation formulation.
Each test sample was prepared. Change of smell of sample exposed to sunlight (80 MJ) was observed (judgement by perfumier).

[2] = Colorant stabilization effect (photostabilizer, sunlight exposure); parameters: key to Sunlight exposure (80 MJ) Appearance: A: No change; B: No almost change; C: Yes change; key to Sunlight exposure (80 MJ) ΔE: ΔE color difference (Lab) vs. color before sunlight exposure; conditions: photostabilizer 0.05 wt %
Experimental: First of all, the photostabilization effect and appearance change of a composition in each pigment were studied by the following evaluation formulation.
Each test sample was prepared. Observation of appearance change (visual evaluation) and measurement of color difference (ΔE) were carried out in samples exposed to sunlight exposure (around 80 MJ).
Color difference was measured by Lab coordinate system with spectrophotometer. Color difference was calculated on the basis of the color before sunlight exposure. Namely, from measured value (L1,a1,b1) before sunlight exposure, color difference (ΔE) was calculated by following formula.

[3] = Drug stabilization effect (photostabilizer, sunlight exposure); parameters: key to Sunlight exposure (80 MJ) Appearance: A: No change; B: No almost change; C: Yes change; conditions: photostabilizer 0.05, amounts wt %
Experimental: Next, the photo stabilization effect and changes in appearance in drug compositions were studied according to the following evaluation formulation.
Each test sample was prepared. Appearance changes of the samples exposed to sunlight (80 MJ) was observed (visual evaluation). Also, residual yield was measured by liquid chromatography.

[4] = Pigment stabilization effect (sequestering agent combination); parameters: key to Sunlight exposure (80 MJ) Appearance: A: No change; B: No almost change; C: Yes change; key to Sunlight exposure (80 MJ) ΔE: color difference ΔE in Lab space vs. color before sunlight exposure; conditions: photostabilizer 0, amounts wt %
Experimental: First of all, the photostabilization effect and appearance changes of a composition for each pigment were studied by the following evaluation formulation.
Each test sample was prepared. Observation of appearance changes (visual evaluation) and measurement of color difference (ΔE) were carried out for samples exposed to sunlight (around 80 MJ).
Color difference was measured by Lab coordinate system with spectrophotometer. Color difference was calculated based on the color before sunlight exposure. Namely, from the measured value (L1,a1,b1) before sunlight exposure, color difference (ΔE) was calculated by following formula.

[5] = Perfume stabilization effect (sequestering agent combination); parameters: key to Sunlight exposure (80 MJ) Smell evaluation: A: No change; B: No almost change; C: Yes change; conditions: sequestering agent 0.03 alone, photostabilizer 0, amounts wt %
Experimental: Next, for combinations with sequestering agent, photostabilization effect for each perfume was studied by the following evaluation formulation.
Each test sample was prepared. Smell change of samples exposed to sunlight (80 MJ) was observed (judgement by perfumier).

[6] = Drug stabilization effect (sequestering agent combination); parameters: key to Sunlight exposure (80 MJ) Appearance: A: No change; B: No almost change; C: Yes change; conditions: sequestering agent 0.03 alone, photostabilizer 0, amounts wt %
Experimental: Next, when combined with a sequestering agent, the photostabilization effect and appearance change of a composition for each drug was studied by the following evaluation formulation.
Each test sample was prepared. Appearance change of the samples exposed to sunlight (around 80 MJ) was observed (visual evaluation). Also, residual yield of a drug was measured by liquid chromatography.

[7] = drug 2-o-α-α-glucopyranosyl-L-ascorbic acid 2.0
[8] = drug Dibutylhydroxytoluene 0.01
[9] = drug Dipotassium glycyrrhizinate 0.05
[10] = drug L-ascorbic acid 2-(dl-α-tocopheryl hydrogen phosphate) potassium salt 0.01
[11] = colorant Blue No. 1 0.0001, sequestering agent 0.03 alone
[12] = colorant Green No. 3 0.0001, sequestering agent 0.03 alone
[13] = colorant Red No. 106 0.0001, sequestering agent 0.02 alone
[14] = colorant Red No. 213 0.0001, sequestering agent 0.05 alone
[15] = colorant Red No. 227 0.0001, sequestering agent 0.02 alone
[16] = colorant Red No. 401 0.001, sequestering agent 0.1 alone
[17] = colorant Yellow No. 5 0.001, sequestering agent 0.02 alone
[18] = colorant Yellow No. 203 0.001, sequestering agent 0.02 alone
[19] = colorants Red No. 227 0.0001 + Yellow No. 203 0.0001, sequestering agent 0.02 alone
[20] = colorants Red No. 401 0.0001 + Green No. 3 0.00001, sequestering agent 0.03 alone
[21] = colorants Yellow No. 203 0.0001 + Yellow No. 5 0.0001, sequestering agent 0.01 alone

With `CCCCCCCCOC(=O)C=Cc1ccc(OC)cc1` [Octyl p-methoxycinnamate, reference compound] the “Sunlight exposure (80 MJ) Smell evaluation” value ([1]; Base perfume Fruity 0.03 wt %, photostabilizer 0.1 wt %) was “C”, the “Sunlight exposure (80 MJ) Smell evaluation” value ([1]; Base perfume Muguet 0.03 wt %, photostabilizer 0.05 wt %) was “C” and the “Sunlight exposure (80 MJ) Smell evaluation” value ([1]; Base perfume Rose 0.03 wt %, photostabilizer 0.05 wt %) was “C”. For the same compound, the “Sunlight exposure (80 MJ) Smell evaluation” value ([1]; Base perfume Spicy 0.03 wt %, photostabilizer 0.2 wt %) was “C”, the “Sunlight exposure (80 MJ) Smell evaluation” value ([1]; Base perfume Woody 0.03 wt %, photostabilizer 0.1 wt %) was “C” and the “Sunlight exposure (80 MJ) Smell evaluation” value ([1]; Natural perfume Jasmine oil 0.03 wt %, photostabilizer 0.05 wt %) was “C”. For the same compound, the “Sunlight exposure (80 MJ) Smell evaluation” value ([1]; Natural perfume Lavender oil 0.03 wt %, photostabilizer 0.1 wt %) was “C”, the “Sunlight exposure (80 MJ) Smell evaluation” value ([1]; Natural perfume Neroli oil 0.03 wt %, photostabilizer 0.1 wt %) was “C” and the “Sunlight exposure (80 MJ) Smell evaluation” value ([1]; Natural perfume Rose oil 0.03 wt %, photostabilizer 0.05 wt %) was “C”. For the same compound, the “Sunlight exposure (80 MJ) Smell evaluation” value ([1]; Natural perfume Ylang ylang oil 0.03 wt %, photostabilizer 0.2 wt %) was “C”, the “Sunlight exposure (80 MJ) Smell evaluation” value ([1]; Synthetic perfume Citral 0.03 wt %, photostabilizer 0.1 wt %) was “C” and the “Sunlight exposure (80 MJ) Smell evaluation” value ([1]; Synthetic perfume Limonene 0.03 wt %, photostabilizer 0.05 wt %) was “C”. For the same compound, the “Sunlight exposure (80 MJ) Smell evaluation” value ([1]; Synthetic perfume Linalool 0.03 wt %, photostabilizer 0.05 wt %) was “C”, the “Sunlight exposure (80 MJ) Smell evaluation” value ([1]; Synthetic perfume Linalyl acetate 0.03 wt %, photostabilizer 0.1 wt %) was “C” and the “Sunlight exposure (80 MJ) Smell evaluation” value ([1]; Synthetic perfume Rose oxide 0.03 wt %, photostabilizer 0.2 wt %) was “C”. For the same compound, the “Sunlight exposure (80 MJ) Appearance” value ([2]; Blue No. 1 0.0001 wt %) was “C”, the “Sunlight exposure (80 MJ) ΔE” value ([2]; Blue No. 1 0.0001 wt %) was 5.23 and the “Sunlight exposure (80 MJ) Appearance” value ([2]; Green No. 3 0.0001 wt %) was “C”. For the same compound, the “Sunlight exposure (80 MJ) ΔE” value ([2]; Green No. 3 0.0001 wt %) was 1.64, the “Sunlight exposure (80 MJ) Appearance” value ([2]; Red No. 106 0.0001 wt %) was “C” and the “Sunlight exposure (80 MJ) ΔE” value ([2]; Red No. 106 0.0001 wt %) was 1.95. The “Sunlight exposure (80 MJ) Appearance” value ([2]; Red No. 213 0.0001 wt %) was “C”, the “Sunlight exposure (80 MJ) ΔE” value ([2]; Red No. 213 0.0001 wt %) was 2.55 and the “Sunlight exposure (80 MJ) Appearance” value ([2]; Red No. 227 0.0001 wt %) was “C”. The “Sunlight exposure (80 MJ) ΔE” value ([2]; Red No. 227 0.0001 wt %) was 1.22, the “Sunlight exposure (80 MJ) Appearance” value ([2]; Red No. 401 0.001 wt %) was “C” and the “Sunlight exposure (80 MJ) ΔE” value ([2]; Red No. 401 0.001 wt %) was 4.76. The “Sunlight exposure (80 MJ) Appearance” value ([2]; Yellow No. 5 0.001 wt %) was “C”, the “Sunlight exposure (80 MJ) ΔE” value ([2]; Yellow No. 5 0.001 wt %) was 1.56 and the “Sunlight exposure (80 MJ) Appearance” value ([2]; Yellow No. 203 0.001 wt %) was “C”. The “Sunlight exposure (80 MJ) ΔE” value ([2]; Yellow No. 203 0.001 wt %) was 2.43, the “Sunlight exposure (80 MJ) Appearance” value [3, 7] was “C” and the “Sunlight exposure (80 MJ) Residual yield [%]” value [3, 7] was 92.3%. For the same compound, the “Sunlight exposure (80 MJ) Appearance” value [3, 8] was “C”, the “Sunlight exposure (80 MJ) Residual yield [%]” value [3, 8] was 71.7% and the “Sunlight exposure (80 MJ) Appearance” value [3, 9] was “C”. For the same compound, the “Sunlight exposure (80 MJ) Residual yield [%]” value [3, 9] was 90.8%, the “Sunlight exposure (80 MJ) Appearance” value [3, 10] was “C” and the “Sunlight exposure (80 MJ) Residual yield [%]” value [3, 10] was 82.1%. The “Sunlight exposure (80 MJ) Appearance” value ([3]; drug Salicylic acid 0.1) was “C” and the “Sunlight exposure (80 MJ) Residual yield [%]” value ([3]; drug Salicylic acid 0.1) was 92.2%.

In the case of Sodium metaphosphate, the “Sunlight exposure (80 MJ) Appearance” value [4, 11] is reported as “C”, the “Sunlight exposure (80 MJ) ΔE” value [4, 11] is reported as 8.02 and the “Sunlight exposure (80 MJ) Appearance” value [4, 12] is reported as “C”. For the same compound, the “Sunlight exposure (80 MJ) ΔE” value [4, 12] was 2.02, the “Sunlight exposure (80 MJ) Appearance” value [4, 13] was “C” and the “Sunlight exposure (80 MJ) ΔE” value [4, 13] was 2.88. For the same compound, the “Sunlight exposure (80 MJ) Appearance” value [4, 14] was “C”, the “Sunlight exposure (80 MJ) ΔE” value [4, 14] was 3.71 and the “Sunlight exposure (80 MJ) Appearance” value [4, 15] was “C”. The “Sunlight exposure (80 MJ) ΔE” value [4, 15] was 1.37, the “Sunlight exposure (80 MJ) Appearance” value [4, 16] was “C” and the “Sunlight exposure (80 MJ) ΔE” value [4, 16] was 7.07. For the same compound, the “Sunlight exposure (80 MJ) Appearance” value [4, 17] was “C”, the “Sunlight exposure (80 MJ) ΔE” value [4, 17] was 1.77 and the “Sunlight exposure (80 MJ) Appearance” value [4, 18] was “C”. For the same compound, the “Sunlight exposure (80 MJ) ΔE” value [4, 18] was 2.74, the “Sunlight exposure (80 MJ) Appearance” value [4, 19] was “C” and the “Sunlight exposure (80 MJ) ΔE” value [4, 19] was 3.01. The “Sunlight exposure (80 MJ) Appearance” value [4, 20] was “C”, the “Sunlight exposure (80 MJ) ΔE” value [4, 20] was 4.23 and the “Sunlight exposure (80 MJ) Appearance” value [4, 21] was “C”. For the same compound, the “Sunlight exposure (80 MJ) ΔE” value [4, 21] was 1.44, the “Sunlight exposure (80 MJ) Smell evaluation” value ([5]; natural perfume Jasmine oil 0.03) was “C” and the “Sunlight exposure (80 MJ) Smell evaluation” value ([5]; natural perfume Musk oil 0.03) was “C”. The “Sunlight exposure (80 MJ) Smell evaluation” value ([5]; natural perfume Orange oil 0.03) was “C”, the “Sunlight exposure (80 MJ) Smell evaluation” value ([5]; perfume Fruity 0.03) was “C” and the “Sunlight exposure (80 MJ) Smell evaluation” value ([5]; perfume Muguet 0.03) was “C”. The “Sunlight exposure (80 MJ) Smell evaluation” value ([5]; synthetic perfume Lilial 0.03) was “C”, the “Sunlight exposure (80 MJ) Smell evaluation” value ([5]; synthetic perfume Oranthiol 0.03) was “C” and the “Sunlight exposure (80 MJ) Appearance” value [6, 7] was “C”. For the same compound, the “Sunlight exposure (80 MJ) Residual yield [%]” value [6, 7] was 85.2%, the “Sunlight exposure (80 MJ) Appearance” value [6, 8] was “C” and the “Sunlight exposure (80 MJ) Residual yield [%]” value [6, 8] was 54.7%. For the same compound, the “Sunlight exposure (80 MJ) Appearance” value [6, 9] was “B” and the “Sunlight exposure (80 MJ) Residual yield [%]” value [6, 9] was 85.8%.
